Measured values from US4935529A, “Cytoxic substances from the marine cyanophyte hormothamnion enteromorphoides grunow” (State of Oregon acting by and through the Oregon State …, priority 1989, dated 1990).
In brackets after ≈: the same amount, converted by molar mass. Entries after “also recorded” stand apart in the source; their conditions may differ.

What was measured:
several human cell lines = test: Cytotoxicity / growth inhibition of several human cell lines; assay type: cell-based; settings: in words
Protein synthesis, HL-60 = test: Inhibition of protein biosynthesis in HL-60 (3H-L-leucine incorporation); assay type: cell-based; settings: Homo sapiens, 3H-L-leucine pulse label, read-out: ID50 Protein
Procedure: (§1) ^b The percentages of macromolecule biosynthesis inhibition were
(§2) calculated from the specific activities of incorporated precursors (c-e)
(§3) into 10^6 cells in drug treated as versus control cells. ID50
(§4) values were obtained by plotting the logarithmic drug concentrations
(§5) against the percentage inhibition of macromolecule biosynthesis.
(§6) ^e Exponentially growing cells pulse labeled with 1 μCi of ^3
(§7) HL-leucine (130 Ci/mmole) per ml of cell suspension.
(§8) Macromolecule biosynthesis in the presence of hormothamnion was measured via radioactive precursor incorporation studies using HL-60 and KB cell lines.

RNA synthesis = test: Macromolecule biosynthesis: inhibition of RNA synthesis (mode of action); assay type: cell-based, human; settings: in words
Procedure: as §1, §2, §3, §4, §5
(§9) ^d Exponentially growing cells pulse labeled with 2 μCi [5^3
(§10) Huridine (28 Ci/mmole) per ml of cell suspension.
as §8

P-388 = test: Inhibition of cell growth, P-388; assay type: cell-based
Procedure: (§11) Inhibition of Cell Growth and Macromolecule Biosynthesis in -Several
(§12) Cancerous Human Cell Lines by Hormothamnione (1)
(§13) ^a ID50 is the drug concentration required to inhibit cell growt
(§14) to 50% of control levels.
as §8

HL-60 = test: Inhibition of cell growth, HL-60; assay type: cell-based, human
Procedure: as §11, §12, §13, §14, §8

DNA synthesis, KB = test: Inhibition of DNA biosynthesis in KB (3H-thymidine incorporation); assay type: cell-based; settings: Homo sapiens, 3H-thymidine pulse label, read-out: ID50 DNA
Procedure: as §1, §2, §3, §4, §5
(§15) ^c Exponentially growing cells pulse labeled with 1 μCi of ^3
(§16) Hthymidine (16.6 Ci/mmole) per ml of cell suspension.
as §8

RNA synthesis, HL-60 = test: Inhibition of RNA biosynthesis in HL-60 (5-3H-uridine incorporation); assay type: cell-based; settings: Homo sapiens, 5-3H-uridine pulse label, read-out: ID50 RNA
Procedure: as §1, §2, §3, §4, §5, §9, §10, §8

gram positive = test: Gram positive antimicrobial activity; assay type: cell-based; settings: in words
Protein synthesis, KB = test: Inhibition of protein biosynthesis in KB (3H-L-leucine incorporation); assay type: cell-based; settings: Homo sapiens, 3H-L-leucine pulse label, read-out: ID50 Protein
Procedure: as §1, §2, §3, §4, §5, §6, §7, §8

RNA synthesis, KB = test: Inhibition of RNA biosynthesis in KB (5-3H-uridine incorporation); assay type: cell-based; settings: Homo sapiens, 5-3H-uridine pulse label, read-out: ID50 RNA
Procedure: as §1, §2, §3, §4, §5, §9, §10, §8

DNA synthesis, HL-60 = test: Inhibition of DNA biosynthesis in HL-60 (3H-thymidine incorporation); assay type: cell-based; settings: Homo sapiens, 3H-thymidine pulse label, read-out: ID50 DNA
Procedure: as §1, §2, §3, §4, §5, §15, §16, §8

Bacillus subtilus = test: Paper disc-agar plate antimicrobial test; assay type: cell-based
Solubility properties = assay type: physicochemical; settings: relative to the natural product; in words

COc1cc(O)c2c(=O)c(C)c(/C=C/c3cc(O)cc(O)c3)oc2c1OC [compound of formula (3)]
inhibited the growth of several human cell lines (several human cell lines): inhibited the growth of several human cell lines
effect on growth compared with hormothamnion (several human cell lines; relative to hormothamnion): less than observed with hormothamnion

COc1c(OC)c(O)c2c(=O)c(C)c(/C=C/c3cc(O)cc(O)c3)oc2c1OC [hormothamnion]
IC50 (Protein synthesis, HL-60): > 0.5 µg/mL
inhibition of RNA synthesis (mode of cytotoxic action) (RNA synthesis): appears to operate via inhibition of RNA synthesis; also recorded: A major mode of cytotoxic action of hormothamnion appears to be by inhibition of RNA synthesis
inhibition of RNA synthesis (mode of cytotoxic action) (RNA synthesis; listed as Hormothamnion): selective inhibition of RNA synthesis
IC50 (P-388; P388, P-388, read-out: ID50 Cell Growth): 0.0046 µg/mL (≈ 0.0115 µM)
cytotoxic agent to P388 lymphocytic leukemia (P-388; in words): potent
cytotoxin to several human cancerous cell lines (several human cell lines): potent cytotoxin
IC50 (HL-60; Homo sapiens, read-out: ID50 Cell Growth): 0.0001 µg/mL (≈ 0.00025 µM)
cytotoxic agent to HL-60 human promyelocytic leukemia (HL-60; in words): potent
IC50 (DNA synthesis, KB): 0.53 µg/mL (≈ 1.32 µM)
IC50 (RNA synthesis, HL-60): 0.001 µg/mL (≈ 0.0025 µM)
gram positive antimicrobial activity (gram positive): minimal
IC50 (Protein synthesis, KB): > 0.5 µg/mL
IC50 (RNA synthesis, KB): 0.14 µg/mL (≈ 0.35 µM)
IC50 (DNA synthesis, HL-60): 0.3 µg/mL (≈ 0.749 µM)
zone of inhibition at 25 µg/disc (Bacillus subtilus; 25 μg per 6 mm paper disc): 8 mm
zone of inhibition at 100 µg/disc (Bacillus subtilus; 100 μg per 6 mm paper disc): 10 mm

COc1c(OC)c(OC(C)=O)c2c(=O)c(C)c(/C=C/c3cc(OC(C)=O)cc(OC(C)=O)c3)oc2c1OC [derivative (2)]
solubility properties (Solubility properties): more favorable
